In the test the target is Phosphatidylinositol 3-kinase catalytic subunit type 3 (Homo sapiens, UniProt Q8NEB9). The test can be described thus: Biochemical Assay: Dilution series of compounds of the invention were prepared in DMSO at 100 times the final assay concentration (n1=n0/3 in 10 points). The compounds were further diluted to 4 times the assay concentration in assay buffer (Life technologies buffer Q, PV5125, diluted 5 times supplemented with 2 mM DTT and 2 mM MnCl2). 2.5 μl of the diluted compounds were added to a 384 well assay plate followed by 2.5 μl of 16.5 nM Vps34 enzyme (Life technologies, PV5126). Enzyme and compounds were pre-incubated at rt for 15 min. Then 5 μl of substrate mix containing 20 μM ATP (Life technologies, PV3227) and 200 μM PI:PS substrate (Life technologies, PV5122) in assay buffer was added to the wells containing compound and enzyme. Mixing was performed by pipetting several times. The reaction was incubated at room temperature for 1 h. Then 5 μl stop-detection mix, prepared as described in the Adapta kinase assay kit instructions (Life technologies, PV5099) containing Adapta Eu-anti-ADP antibody (2.3 nM), Alexa Fluor 647 ADP tracer (9 nM) and EDTA (30 mM) in TR-FRET buffer, was added to quench the reaction. Mixing was performed by pipetting several times. The assay plate was then incubated at room temperature for 30 min and read with Artemis micro plate reader. Percent inhibition of the compounds as compared to DMSO treated control samples was calculated.

SMILES strings stand for the structures.

Sequence of Phosphatidylinositol 3-kinase catalytic subunit type 3 (Q8NEB9 whole entry): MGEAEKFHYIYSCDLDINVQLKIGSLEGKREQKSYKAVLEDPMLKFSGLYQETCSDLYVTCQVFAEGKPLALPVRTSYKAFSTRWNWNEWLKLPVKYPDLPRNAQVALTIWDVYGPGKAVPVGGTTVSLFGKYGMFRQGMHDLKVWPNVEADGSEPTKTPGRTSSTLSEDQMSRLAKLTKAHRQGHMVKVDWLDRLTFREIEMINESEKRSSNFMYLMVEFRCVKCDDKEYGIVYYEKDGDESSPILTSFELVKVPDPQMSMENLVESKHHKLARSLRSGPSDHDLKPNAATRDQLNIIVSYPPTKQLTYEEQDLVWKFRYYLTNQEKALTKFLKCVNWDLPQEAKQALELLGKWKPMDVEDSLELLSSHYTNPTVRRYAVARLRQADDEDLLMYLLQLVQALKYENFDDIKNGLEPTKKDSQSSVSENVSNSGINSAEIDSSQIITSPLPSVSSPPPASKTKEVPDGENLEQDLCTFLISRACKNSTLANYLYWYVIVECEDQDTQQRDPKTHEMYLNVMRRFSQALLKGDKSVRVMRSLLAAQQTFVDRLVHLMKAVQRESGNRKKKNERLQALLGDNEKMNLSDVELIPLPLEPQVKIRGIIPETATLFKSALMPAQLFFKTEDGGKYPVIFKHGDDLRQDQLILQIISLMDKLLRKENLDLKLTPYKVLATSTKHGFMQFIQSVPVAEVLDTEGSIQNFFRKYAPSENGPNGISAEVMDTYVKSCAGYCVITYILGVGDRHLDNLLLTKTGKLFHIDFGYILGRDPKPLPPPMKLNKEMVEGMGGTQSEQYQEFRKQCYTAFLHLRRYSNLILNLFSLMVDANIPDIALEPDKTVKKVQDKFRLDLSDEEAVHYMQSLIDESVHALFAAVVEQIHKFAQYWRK

As usually defined, the IC50 is the concentration that gives 50% inhibition. On to `CC(=O)Nc1cc(-c2cc(-c3ccccc3Cl)[nH]c(=O)c2)ccn1`, for which the IC50 is less than 5 nM.

The values are drawn from ChEMBL document CHEMBL5728921, “Pyridylpyridone compounds” (2022).
